Results as given in paper PMC7496286, “The Selectivity of Fosfosal for STAT5b over STAT5a is Mediated by Arg566 in the Linker Domain” (Chembiochem, 2020).
Positions count from the first letter of the chain named. Several values for one entry are separate records, joined by “and”; a condition that tells them apart may be missing. Equal entries are not always repeated.

Experiments:
[1] = target: T1, STAT5b-6M (Gln636Pro/Met639Asn/Phe640Leu/Met644Lys/Asn664Ser/Tyr679Phe) (Homo sapiens, UniProt P51692, F640L/M639N/M644K/N664S/Q636P/Y679F); test: FP-based competitive binding assay, STAT5b-6M
T1 construct: His; made in house
T1 sequence (P51692 1-787 Q636P/M639N/F640L/M644K/N664S/Y679F): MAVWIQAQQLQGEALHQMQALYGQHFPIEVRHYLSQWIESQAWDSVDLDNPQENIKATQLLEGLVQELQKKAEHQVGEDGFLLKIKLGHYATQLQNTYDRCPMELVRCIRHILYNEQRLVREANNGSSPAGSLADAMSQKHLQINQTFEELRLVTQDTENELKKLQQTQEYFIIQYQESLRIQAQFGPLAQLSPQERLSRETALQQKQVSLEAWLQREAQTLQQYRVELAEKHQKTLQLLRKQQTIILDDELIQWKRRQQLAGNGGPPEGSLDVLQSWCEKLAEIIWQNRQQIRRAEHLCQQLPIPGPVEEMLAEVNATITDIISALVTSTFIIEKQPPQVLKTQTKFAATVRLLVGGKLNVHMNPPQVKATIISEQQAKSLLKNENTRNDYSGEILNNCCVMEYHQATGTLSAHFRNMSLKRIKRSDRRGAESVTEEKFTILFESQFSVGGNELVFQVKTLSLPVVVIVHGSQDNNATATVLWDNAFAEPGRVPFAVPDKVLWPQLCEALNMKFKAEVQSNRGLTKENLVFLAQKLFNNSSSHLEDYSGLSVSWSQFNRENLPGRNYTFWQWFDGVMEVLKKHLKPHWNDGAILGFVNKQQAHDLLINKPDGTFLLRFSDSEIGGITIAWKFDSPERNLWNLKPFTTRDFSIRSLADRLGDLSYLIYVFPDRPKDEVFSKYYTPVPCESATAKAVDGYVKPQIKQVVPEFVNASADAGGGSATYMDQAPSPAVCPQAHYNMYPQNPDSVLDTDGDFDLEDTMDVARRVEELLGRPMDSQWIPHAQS
Description: (§1) Fluorescence polarization assays
(§2) The ability of test compounds to displace 5-carboxyfluorescein-GY(PO3H2)LVLDKW (final concentration: 10 nM) from the SH2 domain of STAT5a/b proteins was analyzed. Proteins […]
(§3) was applied in dilution series comprising the following concentrations: 0.024 – 200 µM […]
(§4) and 0.146 – 600 µM (STAT5b Arg566Glu), respectively. The assays were performed in buffer containing 10 mM Tris, 50 mM NaCl, 1 mM DTT, 1 mM EDTA and 0.1% (v/v) NP-40. Fosfosal was dissolved in DMSO. STAT5a/b proteins and fosfosal were incubated at room temperature for 1 h before adding peptide. Samples were transferred to 384-well microtiter plates and fluorescence polarization was read after a further 1 h incubation time. All measurements were performed in triplicate (n=3), except for STAT5b (n=6) and STAT5a Trp566Arg (n=4). Percent binding was calculated based on a logarithmic curve fit using OriginPro 8G software. IC50 values were converted to Ki values using the published equation.[4] […]
(§5) [4] Z. Nikolovska-Coleska, R. Wang, X. Fang, H. Pan, Y. Tomita, P. Li, P. P. Roller, K.
(§6) Krajewski, N. G. Saito, J. A. Stuckey, S. Wang, Anal. Biochem. 2004, 332, 261-273.

STAT5b SH2 domain = target: T2, STAT5b SH2 domain (Homo sapiens, UniProt P51692); test: Fluorescence polarization (FP)-based competitive binding assay, wild-type STAT5b
T2 construct: His; made in house
T2 sequence (P51692 1-787): T1 sequence (P51692 1-787 Q636P/M639N/F640L/M644K/N664S/Y679F) with P636Q, N639M, L640F, K644M, S664N, F679Y
Description: as §1, §2, §3, §4
[2] N. Elumalai, A. Berg, K. Natarajan, A. Scharow, T. Berg, Angew. Chem. Int. Ed. 2015, […]
[3] M. Gräber, W. Janczyk, B. Sperl, N. Elumalai, C. Kozany, F. Hausch, T. A. Holak, T.
as §5, §6

| SMILES | Kd [1] | Kd (STAT5b SH2 domain; Kd, fluorescent tracer peptide binding to STAT5b) | IC50 ([1]; STAT5b-6M) | Ki ([1]; STAT5b-6M, Ki calculated from IC50) | increase of activity against STAT5b-6M compared to wild type STAT5b ([1]; ratio of Ki values) | selectivity for STAT5b over STAT5a (STAT5b SH2 domain; Ki STAT5a versus Ki STAT5b) | IC50 (STAT5b SH2 domain; wild-type STAT5b) | Ki (STAT5b SH2 domain; wild-type STAT5b, Ki calculated from IC50 with published equation, n=6) |
| --- | --- | --- | --- | --- | --- | --- | --- | --- |
| CC(C)C[C@H](NC(=O)[C@H](Cc1ccc(OP(=O)(O)O)cc1)NC(=O)CNC(=O)c1ccc2c(c1)C(=O)OC21c2ccc(O)cc2Oc2cc(O)ccc21)C(=O)N[C@H](C(=O)N[C@@H](CC(C)C)C(=O)N[C@@H](CC(=O)O)C(=O)N[C@@H](CCCCN)C(=O)N[C@@H](Cc1c[nH]c2ccccc12)C(=O)O)C(C)C [5-carboxyfluorescein-GY(PO3H2)LVLDKW] | 0.085 µM | 0.082 µM and 0.095 µM | – | – | – | – | – | – |
| O=C(O)c1ccccc1OP(=O)(O)O [fosfosal, O‐phosphorylated salicylic acid] | – | – | 21.3 ± 1.2 µM | 10.7 ± 0.6 µM | ~3 fold | fivefold | 59.5 ± 3.6 µM | 29.3 ± 1.8 µM |
